The numbers were not newly measured in patent US20100179202A1, “ORALLY DISINTEGRATING COMPOSITION OF ZOLMITRIPTAN” (AJANTA PHARMA LIMITED., priority 2009, published 2010), which cites them from elsewhere.

Molecules are shown by their SMILES.

For the data set the following is noted: background description of the drug substance.

On to `CN(C)CCc1c[nH]c2ccc(C[C@H]3COC(=O)N3)cc12` [Zolmitriptan, (4S)-4-{[3-(2-dimethylaminoethyl)-1H-indol-5-yl]methyl}-1,3-oxazolidin-2-one], for which the solubility in water entry is “readily soluble in water”.
